Test results as given in PubChem BioAssay (NCI).
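Protocol summary: plate cells (96-well), add compound at 5 concentrations, incubate 48 h, interpolate endpoints linearly. TGI is the concentration that stops growth completely.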

What was measured:
Assay in all cases: growth of human tumour cells (NCI), 48 h
[1] = test system: 786-0 renal
[2] = test system: DU-145 prostate
[3] = test system: EKVX NSCLC
[4] = test system: HOP-92 NSCLC
[5] = test system: KM12 colon
[6] = test system: MOLT-4 leukemia
[7] = test system: NCI/ADR-RES ovarian
[8] = test system: OVCAR-5 ovarian
[9] = test system: PC-3 prostate
[10] = test system: SF-295 CNS
[11] = test system: SK-MEL-5 melanoma
[12] = test system: SN12C renal
[13] = test system: SNB-75 CNS
[14] = test system: T-47D breast
[15] = test system: UACC-62 melanoma
[16] = test system: HL-60(TB) leukemia
[17] = test system: NCI-H23 lung
[18] = test system: NCI-H522 lung

Structure (SMILES): COc1cccc([C@@H]2C/C(=N\NC(=O)C(=O)N[C@@H](C)c3ccccc3)c3ccccc3N2)c1
- TGI [1]: > 100 µM
- TGI [2]: > 100 µM
- TGI [3]: > 100 µM
- TGI [4]: > 100 µM
- TGI [5]: > 100 µM
- TGI [6]: 34.8 µM
- TGI [7]: > 100 µM
- TGI [8]: > 100 µM
- TGI [9]: > 100 µM
- TGI [10]: > 100 µM
- TGI [11]: > 100 µM
- TGI [12]: > 100 µM
- TGI [13]: > 100 µM
- TGI [14]: > 100 µM
- TGI [15]: 38.4 µM

Structure (SMILES): CCN(CC)CCCNc1ccc([N+](=O)[O-])c2nc3ccccc3c(N)c12
- TGI [1]: 1.72 µM
- TGI [2]: > 10 µM
- TGI [3]: 2.86 µM
- TGI [16]: 2.92 µM
- TGI [4]: > 10 µM
- TGI [5]: 1.7 µM
- TGI [6]: 4.29 µM
- TGI [17]: 2.76 µM
- TGI [7]: 2.65 µM
- TGI [8]: 3.43 µM
- TGI [9]: 2.25 µM
- TGI [10]: 1.87 µM
- TGI [11]: 1.53 µM
- TGI [12]: > 10 µM
- TGI [13]: 2.42 µM
- TGI [15]: > 10 µM

Structure (SMILES): CCOC(=O)C1CCCc2sc(N)c(C#N)c21 (centres undefined)
- TGI [1]: > 100 µM
- TGI [3]: > 100 µM
- TGI [16]: > 100 µM
- TGI [4]: > 100 µM
- TGI [5]: > 100 µM
- TGI [6]: > 100 µM
- TGI [17]: > 100 µM
- TGI [8]: > 100 µM
- TGI [9]: > 100 µM
- TGI [11]: > 100 µM
- TGI [12]: > 100 µM
- TGI [13]: > 100 µM
- TGI [14]: > 100 µM
- TGI [15]: > 100 µM

Structure (SMILES): O=S1Nc2cccc(C(F)(F)F)c2S1 (centres undefined)
- TGI [1]: > 100 µM
- TGI [3]: > 100 µM
- TGI [16]: 31.8 µM
- TGI [4]: 73.2 µM
- TGI [5]: 59.9 µM
- TGI [6]: 55.4 µM
- TGI [17]: > 100 µM
- TGI [18]: > 100 µM
- TGI [8]: > 100 µM
- TGI [10]: > 100 µM
- TGI [11]: > 100 µM
- TGI [12]: > 100 µM
- TGI [13]: 82.8 µM
- TGI [15]: > 100 µM

Structure (SMILES): CCOC(=O)c1c(NC(=S)Nc2ccccc2)sc2c1CCN(C)C2
- TGI [1]: > 100 µM
- TGI [2]: > 100 µM
- TGI [3]: > 100 µM
- TGI [16]: > 100 µM
- TGI [5]: > 100 µM
- TGI [6]: > 100 µM
- TGI [17]: > 100 µM
- TGI [7]: > 100 µM
- TGI [8]: > 100 µM
- TGI [9]: > 100 µM
- TGI [10]: > 100 µM
- TGI [11]: > 100 µM
- TGI [12]: > 100 µM
- TGI [14]: > 100 µM
- TGI [15]: > 100 µM

Structure (SMILES): COc1ccc2c(=O)c3ccoc3[nH]c2c1
- TGI [1]: > 100 µM
- TGI [2]: > 100 µM
- TGI [3]: > 100 µM
- TGI [16]: > 100 µM
- TGI [4]: > 100 µM
- TGI [5]: > 100 µM
- TGI [6]: > 100 µM
- TGI [17]: > 100 µM
- TGI [7]: > 100 µM
- TGI [9]: > 100 µM
- TGI [10]: > 100 µM
- TGI [11]: > 100 µM
- TGI [13]: > 100 µM
- TGI [14]: > 100 µM
- TGI [15]: > 100 µM

Structure (SMILES): CC1(C)CN(CC(=O)O)CC(Cc2ccc(OCC(=O)O)cc2)N(CC(=O)O)CC(C)(C)SS1 (centres undefined)
- TGI [1]: > 100 µM
- TGI [2]: > 100 µM
- TGI [3]: > 100 µM
- TGI [4]: > 100 µM
- TGI [5]: > 100 µM
- TGI [6]: > 100 µM
- TGI [17]: > 100 µM
- TGI [18]: > 100 µM
- TGI [7]: > 100 µM
- TGI [8]: > 100 µM
- TGI [9]: > 100 µM
- TGI [10]: > 100 µM
- TGI [11]: > 100 µM
- TGI [12]: > 100 µM
- TGI [13]: > 100 µM
- TGI [15]: > 100 µM

Structure (SMILES): CCOc1ccc(N(CC(=O)N2CC(=O)Nc3cc(C)c(C)cc32)C(C)=O)cc1
- TGI [1]: > 100 µM
- TGI [3]: > 100 µM
- TGI [16]: > 100 µM
- TGI [4]: > 100 µM
- TGI [5]: > 100 µM
- TGI [6]: > 100 µM
- TGI [17]: > 100 µM
- TGI [18]: > 100 µM
- TGI [8]: > 100 µM
- TGI [10]: > 100 µM
- TGI [11]: > 100 µM
- TGI [12]: > 100 µM
- TGI [13]: > 100 µM
- TGI [15]: > 100 µM

Structure (SMILES): O=C1N[C@H]2C(=O)c3c(Br)sc(Br)c3[C@H]2O1
- TGI [1]: 24.1 µM
- TGI [2]: 28.9 µM
- TGI [3]: 13 µM
- TGI [4]: 28.9 µM
- TGI [5]: > 55.5 µM
- TGI [6]: 5.25 µM
- TGI [17]: 17.7 µM
- TGI [18]: 3.22 µM
- TGI [7]: 39 µM
- TGI [8]: 34.3 µM
- TGI [9]: 16.4 µM
- TGI [10]: 37 µM
- TGI [11]: 27.7 µM
- TGI [12]: 11.4 µM
- TGI [13]: 31.4 µM
- TGI [14]: 55 µM
- TGI [15]: 26.7 µM

Structure (SMILES): CC(C)N(C(=O)C12C3C4C5C3C1(C(=O)O)C5C42)C(C)C (centres undefined)
- TGI [1]: > 100 µM
- TGI [3]: > 100 µM
- TGI [16]: > 100 µM
- TGI [4]: > 100 µM
- TGI [5]: > 100 µM
- TGI [6]: > 100 µM
- TGI [17]: > 100 µM
- TGI [18]: > 100 µM
- TGI [8]: > 100 µM
- TGI [10]: > 100 µM
- TGI [11]: > 100 µM
- TGI [12]: > 100 µM
- TGI [13]: > 100 µM
- TGI [15]: > 100 µM

Structure (SMILES): COc1cc(C2c3cc4c(cc3OC(NNC(N)=S)C2C)OCO4)cc(OC)c1OC (centres undefined)
- TGI [1]: > 100 µM
- TGI [2]: > 100 µM
- TGI [3]: > 100 µM
- TGI [16]: 0.631 µM
- TGI [4]: 7.9 µM
- TGI [5]: > 35.6 µM
- TGI [18]: 1.24 µM
- TGI [7]: > 100 µM
- TGI [8]: > 100 µM
- TGI [10]: 0.884 µM
- TGI [12]: > 100 µM
- TGI [13]: > 100 µM
- TGI [14]: > 31.6 µM
- TGI [15]: > 100 µM

Structure (SMILES): Nc1nc(Cl)c(N)c(NCC2(CO)CCC(OCc3ccccc3)C2)n1 (centres undefined)
- TGI [1]: > 100 µM
- TGI [2]: > 100 µM
- TGI [3]: > 100 µM
- TGI [4]: > 100 µM
- TGI [5]: > 100 µM
- TGI [6]: > 100 µM
- TGI [17]: > 100 µM
- TGI [18]: > 100 µM
- TGI [7]: > 100 µM
- TGI [8]: > 100 µM
- TGI [9]: > 100 µM
- TGI [10]: > 100 µM
- TGI [11]: > 100 µM
- TGI [12]: > 100 µM
- TGI [13]: > 100 µM
- TGI [14]: > 100 µM
- TGI [15]: > 100 µM

Structure (SMILES): NC(=O)c1ncn(C2C=CC(CP(=O)(O)O)C2)c1N (centres undefined)
- TGI [1]: > 100 µM
- TGI [2]: > 100 µM
- TGI [3]: > 100 µM
- TGI [16]: > 100 µM
- TGI [4]: > 100 µM
- TGI [5]: > 100 µM
- TGI [6]: > 100 µM
- TGI [17]: > 100 µM
- TGI [7]: > 100 µM
- TGI [8]: > 100 µM
- TGI [9]: > 100 µM
- TGI [10]: > 100 µM
- TGI [11]: > 100 µM
- TGI [12]: > 100 µM
- TGI [13]: > 100 µM
- TGI [14]: > 100 µM
- TGI [15]: > 100 µM

Structure (SMILES): CC(=O)NC1=NC(=O)/C(=C/c2ccccc2Cl)N1C
- TGI [1]: > 100 µM
- TGI [2]: > 100 µM
- TGI [3]: > 100 µM
- TGI [16]: > 100 µM
- TGI [4]: > 100 µM
- TGI [5]: > 100 µM
- TGI [6]: > 100 µM
- TGI [17]: > 100 µM
- TGI [18]: > 100 µM
- TGI [7]: > 100 µM
- TGI [8]: > 100 µM
- TGI [9]: > 100 µM
- TGI [10]: > 100 µM
- TGI [11]: > 100 µM
- TGI [12]: > 100 µM
- TGI [13]: > 100 µM
- TGI [15]: > 100 µM

Structure (SMILES): Oc1ccc(Br)cc1C=Nc1c(NC2CCCCC2)oc2ccc(Br)cc12
- TGI [1]: > 100 µM
- TGI [2]: > 100 µM
- TGI [3]: > 100 µM
- TGI [16]: 21.8 µM
- TGI [5]: > 100 µM
- TGI [17]: 56 µM
- TGI [7]: > 100 µM
- TGI [8]: > 100 µM
- TGI [10]: > 100 µM
- TGI [11]: > 100 µM
- TGI [12]: > 100 µM
- TGI [13]: 79.5 µM
- TGI [14]: > 100 µM
- TGI [15]: > 100 µM
